Test results: PubChem BioAssay AID1963450 (Molecular Pharmacology Branch, DTP, NCI, 2024)
Values joined by “and” are separate entries in the source; they are usually repeats but may differ in a detail not shown here. Identical values can stand only once.

Tested on: 556581-035-R-J1-PDC complex spheroid growth
Experiment: Anticancer human tumor 556581-035-R-J1-PDC patient-derived ovarian carcinoma cell line growth inhibition [Asc]
Details: for viability, T/C: stronger effect = lower value; active = viability on the fitted dose curve at most 10% of control; inactive = the rest
Outline: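 Stromal components (HUVEC and hMSC) are co-assembled with the cancer cells into multicellular spheroids. Drugs are then added singly or paired, at concentrations falling by half-log increments from a clinically achievable maximum, capped at 10 microM without known Cmax.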

[1] = curve of first compound, second compound 0.1 µM
[2] = curve of first compound, second compound 0.316 µM
[3] = curve of first compound, second compound 1 µM
[4] = second compound 0.1 µM, first compound 0.0316 µM
[5] = second compound 0.1 µM, first compound 0.1 µM
[6] = second compound 0.1 µM, first compound 0.316 µM
[7] = second compound 0.1 µM, first compound 1 µM
[8] = second compound 0.316 µM, first compound 0.0316 µM
[9] = second compound 0.316 µM, first compound 0.1 µM
[10] = second compound 0.316 µM, first compound 0.316 µM
[11] = second compound 0.316 µM, first compound 1 µM
[12] = second compound 1 µM, first compound 0.0316 µM
[13] = second compound 1 µM, first compound 0.1 µM
[14] = second compound 1 µM, first compound 0.316 µM
[15] = second compound 1 µM, first compound 1 µM
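Also: spheroids exposed to agents for 7 days before viability read.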

C=C(F)C(=O)N1CCN(c2nc(OCC3CCCN3C)nc3c2CCN(c2cccc4cccc(Cl)c24)C3)CC1CC#N (centres undefined) + CCN1C(C(=O)NC23CCC(C(=O)O)(CC2)CC3)C(c2cccc(Cl)c2F)C2(C(=O)Nc3cc(Cl)ccc32)C12CCCCC2
3.86 µM: IC50 (curve of first compound, second compound 0.0949 µM)
inactive: viability, T/C (second compound 0.03 µM, first compound 0.0316 µM) 92.1% | viability, T/C (second compound 0.03 µM, first compound 0.1 µM) 97.3% | viability, T/C (second compound 0.03 µM, first compound 0.316 µM) 112% | viability, T/C (second compound 0.03 µM, first compound 1 µM) 94.5% | viability, T/C (second compound 0.03 µM, first compound 3.16 µM) 59% | viability, T/C (second compound 0.0949 µM, first compound 0.0316 µM) 114% | viability, T/C (second compound 0.0949 µM, first compound 0.1 µM) 102% | viability, T/C (second compound 0.0949 µM, first compound 0.316 µM) 90.8% | viability, T/C (second compound 0.0949 µM, first compound 1 µM) 87.8% | viability, T/C (second compound 0.0949 µM, first compound 3.16 µM) 62.5% | viability, T/C (second compound 0.3 µM, first compound 0.0316 µM) 103% | viability, T/C (second compound 0.3 µM, first compound 0.1 µM) 92.5% | viability, T/C (second compound 0.3 µM, first compound 0.316 µM) 103% | viability, T/C (second compound 0.3 µM, first compound 1 µM) 81.6% | viability, T/C (second compound 0.3 µM, first compound 3.16 µM) 61.4% | viability, T/C (second compound 0.949 µM, first compound 0.0316 µM) 91.7% | viability, T/C (second compound 0.949 µM, first compound 0.1 µM) 99.2% | viability, T/C (second compound 0.949 µM, first compound 0.316 µM) 98.3% | viability, T/C (second compound 0.949 µM, first compound 1 µM) 84.9% | viability, T/C (second compound 0.949 µM, first compound 3.16 µM) 65.6% | viability, T/C (second compound 0.949 µM, first compound 10 µM) 12.3% | viability, T/C (second compound 3 µM, first compound 0.0316 µM) 89.8% | viability, T/C (second compound 3 µM, first compound 0.1 µM) 105% | viability, T/C (second compound 3 µM, first compound 0.316 µM) 92.5% | viability, T/C (second compound 3 µM, first compound 1 µM) 79.2% | viability, T/C (second compound 3 µM, first compound 3.16 µM) 45.2%
active: viability, T/C (second compound 0.03 µM, first compound 10 µM) 3.04% | viability, T/C (second compound 0.0949 µM, first compound 10 µM) 3.7% | viability, T/C (second compound 0.3 µM, first compound 10 µM) 3.01% | viability, T/C (second compound 3 µM, first compound 10 µM) 2.9%
4.39 µM: IC50 (curve of first compound, second compound 0.949 µM)
3.88 µM: IC50 (curve of first compound, second compound 0.3 µM)
2.67 µM: IC50 (curve of first compound, second compound 3 µM)
3.8 µM: IC50 (curve of first compound, second compound 0.03 µM)

COc1c(OCCCN2CCOCC2)ccc2c3n(c(=NC(=O)c4cnc(N)nc4)nc12)CCN3
inactive: viability, T/C (compound 0.00316 µM) 78.2% and 82.3% and 79.7% | viability, T/C (compound 0.01 µM) 72.5% and 69% and 57% | viability, T/C (compound 0.0316 µM) 46.2% and 48.9% and 45.8% | viability, T/C (compound 0.1 µM) 48.2% and 42% and 41% | viability, T/C (compound 0.316 µM) 31.7% and 22.4% and 24.1% | viability, T/C (compound 1 µM) 11.9% and 14.8% and 17.5%
0.0537 µM and 0.0381 µM and 0.0259 µM: IC50 (curve of compound)

O=C(c1cc(Cc2n[nH]c(=O)c3ccccc23)ccc1F)N1CCN(C(=O)C2CC2)CC1 + CNC(C)C(=O)NC1CN(S(=O)(=O)c2cccc(S(=O)(=O)N3CCC4CCC(C(=O)NC(c5ccccc5)c5ccccc5)N4C(=O)C(NC(=O)C(C)NC)C3)c2)CCC2CCC(C(=O)NC(c3ccccc3)c3ccccc3)N2C1=O
> 10 µM: IC50 (curve of first compound, second compound 0.01 µM) | IC50 (curve of first compound, second compound 0.0316 µM) | IC50 [1] | IC50 [2]
inactive: viability, T/C (second compound 0.01 µM, first compound 0.0316 µM) 83.4% | viability, T/C (second compound 0.01 µM, first compound 0.1 µM) 74.5% | viability, T/C (second compound 0.01 µM, first compound 0.316 µM) 88.2% | viability, T/C (second compound 0.01 µM, first compound 1 µM) 93.8% | viability, T/C (second compound 0.01 µM, first compound 3.16 µM) 52.8% | viability, T/C (second compound 0.01 µM, first compound 10 µM) 56.8% | viability, T/C (second compound 0.0316 µM, first compound 0.0316 µM) 89.3% | viability, T/C (second compound 0.0316 µM, first compound 0.1 µM) 88.7% | viability, T/C (second compound 0.0316 µM, first compound 0.316 µM) 87.3% | viability, T/C (second compound 0.0316 µM, first compound 1 µM) 88.8% | viability, T/C (second compound 0.0316 µM, first compound 3.16 µM) 55.3% | viability, T/C (second compound 0.0316 µM, first compound 10 µM) 73.1% | viability, T/C [4] 84.4% | viability, T/C [5] 67% | viability, T/C [6] 67.2% | viability, T/C [7] 61.5% | viability, T/C (second compound 0.1 µM, first compound 3.16 µM) 49.1% | viability, T/C (second compound 0.1 µM, first compound 10 µM) 61.2% | viability, T/C [8] 88% | viability, T/C [9] 76.3% | viability, T/C [10] 86% | viability, T/C [11] 76% | viability, T/C (second compound 0.316 µM, first compound 3.16 µM) 50% | viability, T/C (second compound 0.316 µM, first compound 10 µM) 63.2% | viability, T/C [12] 76.8% | viability, T/C [13] 84.1% | viability, T/C [14] 73.8% | viability, T/C [15] 88% | viability, T/C (second compound 1 µM, first compound 3.16 µM) 45.7% | viability, T/C (second compound 1 µM, first compound 10 µM) 61.2%
10 µM: IC50 [3]

O=C(c1ccc(F)c(F)c1Nc1ccc(I)cc1F)N1CC(O)([C@@H]2CCCCN2)C1 + Cc1c(S(C)(=O)=O)c(-c2cc(F)cc(N3CCN(c4ccc(NS(=O)(=O)c5ccc(NC(CCN6CCC(C(=O)OCCCP(=O)(O)O)CC6)CSc6ccccc6)c(S(=O)(=O)C(F)(F)F)c5)cc4)CC3)c2)c(-c2ccc(Cl)cc2)n1C(C)C
active: viability, T/C [7] 4.45% | viability, T/C [14] 8.66% | viability, T/C [15] 1.82% | viability, T/C (second compound 3.16 µM, first compound 1 µM) 4.54%
0.0566 µM: IC50 (curve of first compound, second compound 3.16 µM)
0.0929 µM: IC50 [1]
0.0554 µM: IC50 [2]
0.00493 µM: IC50 (curve of first compound, second compound 10 µM)
0.044 µM: IC50 [3]
inactive: viability, T/C (second compound 0.1 µM, first compound 0.00316 µM) 73% | viability, T/C (second compound 0.1 µM, first compound 0.01 µM) 66.8% | viability, T/C [4] 72.6% | viability, T/C [5] 44.9% | viability, T/C [6] 23.8% | viability, T/C (second compound 0.316 µM, first compound 0.00316 µM) 59.6% | viability, T/C (second compound 0.316 µM, first compound 0.01 µM) 58.8% | viability, T/C [8] 61.6% | viability, T/C [9] 39.4% | viability, T/C [10] 21.6% | viability, T/C [11] 25.9% | viability, T/C (second compound 1 µM, first compound 0.00316 µM) 70% | viability, T/C (second compound 1 µM, first compound 0.01 µM) 73.7% | viability, T/C [12] 57.1% | viability, T/C [13] 29.5% | viability, T/C (second compound 3.16 µM, first compound 0.00316 µM) 67.7% | viability, T/C (second compound 3.16 µM, first compound 0.01 µM) 54.5% | viability, T/C (second compound 3.16 µM, first compound 0.0316 µM) 57.4% | viability, T/C (second compound 3.16 µM, first compound 0.1 µM) 45.5% | viability, T/C (second compound 3.16 µM, first compound 0.316 µM) 22.3% | viability, T/C (second compound 10 µM, first compound 0.00316 µM) 49.6% | viability, T/C (second compound 10 µM, first compound 0.01 µM) 51.9% | viability, T/C (second compound 10 µM, first compound 0.0316 µM) 40.5% | viability, T/C (second compound 10 µM, first compound 0.1 µM) 15.2% | viability, T/C (second compound 10 µM, first compound 0.316 µM) 38.4% | viability, T/C (second compound 10 µM, first compound 1 µM) 16%

C=C(F)C(=O)N1CCN(c2nc(OCC3CCCN3C)nc3c2CCN(c2cccc4cccc(Cl)c24)C3)CC1CC#N (centres undefined)
15% and 3.22% and 1%: viability, T/C (compound 10 µM)
3.02 µM and 4.07 µM and 3.52 µM: IC50 (curve of compound)
inactive: viability, T/C (compound 0.0316 µM) 77.9% and 98.7% and 100% | viability, T/C (compound 0.1 µM) 113% and 115% and 91.5% | viability, T/C (compound 0.316 µM) 102% and 110% and 95% | viability, T/C (compound 1 µM) 90.5% and 87% and 93.3% | viability, T/C (compound 3.16 µM) 48.4% and 64.9% and 55.1%
